Data taken from patent US6043241A, “Ketoacid endothelin antagonists” (Warner-Lambert Company, priority 1998, dated 2000).
Where a SMILES comes first, the peptide text is derived from it. [ ]: non-standard residue; d: D form.

Assays:
pulmonary hypertension = conditions: rat hypoxia model; cited from earlier work
early cerebral vasospasm [1] = conditions: in vivo; cited from earlier work
chronic heart failure = conditions: patients with chronic heart failure; cited from earlier work
acute renal ischemia = conditions: in vivo; cited from earlier work
[2] = tested on: ET-1-induced changes in gastric mucosal hemodynamics; conditions: in vivo; cited from earlier work
human ETA R = molecular target: T1, human ETA R (Homo sapiens, UniProt P25101); test: Competition radioligand binding assay, [125I]-ET-1, Ltk- cells expressing human ETA R (HERBA A); conditions: Ltk- cell membranes, 40 pM [125I]-ET-1, 2 hours at 37° C
T1 construct: expressed in transfected cells; host or cells: Ltk- cells (membranes)
T1 sequence (P25101 21-427): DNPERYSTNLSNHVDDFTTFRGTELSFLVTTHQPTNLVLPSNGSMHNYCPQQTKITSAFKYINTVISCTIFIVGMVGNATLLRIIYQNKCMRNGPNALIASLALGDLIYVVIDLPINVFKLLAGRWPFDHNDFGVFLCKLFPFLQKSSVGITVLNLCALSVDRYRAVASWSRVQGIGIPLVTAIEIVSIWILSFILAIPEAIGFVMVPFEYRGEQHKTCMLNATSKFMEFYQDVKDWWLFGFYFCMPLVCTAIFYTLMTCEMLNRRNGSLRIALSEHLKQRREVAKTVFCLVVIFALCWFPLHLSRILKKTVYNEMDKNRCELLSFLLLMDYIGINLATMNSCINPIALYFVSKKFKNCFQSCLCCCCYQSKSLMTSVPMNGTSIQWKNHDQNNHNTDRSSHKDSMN
Procedure: (§1) The following cultured cells were used in binding experiments: CHO-K1 cells expressing recombinant human ETB R (HERBA B), or Ltk^- cells expressing human ETA R (HERBA A). […] Membranes were prepared from cultured cells by lysing cells in cold lysis buffer (5 mM HEPES, 2 mM EDTA, pH 7.4) and homogenizing with a Dounce "A" homogenizer. All of the homogenates were centrifuged at 30,000×g for 20 minutes at 4° C. Membrane pellets were resuspended in cold buffer containing 20 mM Tris, 2 mM EDTA, 200 μM Pefablock, 10 μM phosphoramidon, 10 μM leupeptin, and 1 μM pepstatin (pH 7.4) and frozen at -80° C. until use. Radioligand and competing ligands were prepared in binding buffer containing 20 mM Tris, 2 mM EDTA, and 0.1% BSA.
(§2) The assay was terminated by filtration over Whatman GF/B filters that were presoaked with 50 mM Tris, pH 7.4, containing 0.2% BSA and 100 μM bacitracin. […] binding was defined as total binding minus nonspecific binding.

human ETB R = molecular target: T2, human ETB R (Homo sapiens, UniProt P24530); test: Competition radioligand binding assay, [125I]-ET-1, CHO-K1 cells expressing recombinant human ETB R (HERBA B); conditions: CHO-K1 cell membranes, 40 pM [125I]-ET-1, 2 hours at 37° C
T2 construct: expressed in transfected cells; host or cells: CHO-K1 cells (membranes)
T2 sequence (P24530 27-442): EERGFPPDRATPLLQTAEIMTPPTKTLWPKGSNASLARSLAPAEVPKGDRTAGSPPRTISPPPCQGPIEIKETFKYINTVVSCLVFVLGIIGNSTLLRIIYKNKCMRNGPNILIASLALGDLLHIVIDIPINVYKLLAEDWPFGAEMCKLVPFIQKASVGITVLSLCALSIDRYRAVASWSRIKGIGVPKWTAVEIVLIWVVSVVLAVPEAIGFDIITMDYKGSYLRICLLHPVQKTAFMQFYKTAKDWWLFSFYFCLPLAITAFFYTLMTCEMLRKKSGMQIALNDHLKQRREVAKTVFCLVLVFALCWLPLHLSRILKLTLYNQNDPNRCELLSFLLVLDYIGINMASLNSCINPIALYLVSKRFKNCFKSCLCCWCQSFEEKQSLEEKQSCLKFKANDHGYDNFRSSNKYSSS
Procedure: as §1, §2

prostate smooth muscle = conditions: in vivo; cited from earlier work
[3] = tested on: middle cerebral artery occlusion; conditions: cats, IV; cited from earlier work
early cerebral vasospasm [4] = conditions: rat SAH; cited from earlier work
neointima formation = conditions: rats, carotid artery balloon angioplasty; cited from earlier work
[5] = tested on: basilar artery vasoconstriction; conditions: canine two-hemorrhage model of SAH, after 7 days; cited from earlier work
small intestinal mucosa = conditions: rats, local intra-arterial; cited from earlier work
liver = conditions: cited from earlier work
[6] = tested on: isolated cerebral arterioles; conditions: cited from earlier work

CC(C)C[C@@H]1NC(=O)[C@@H](C(C)C)NC(=O)[C@@H]2CCCN2C(=O)[C@@H](CC(=O)O)NC(=O)[C@@H](Cc2c[nH]c3ccccc23)NC1=O [BQ-123] (cyclo(L[dW][dD]P[dV]))
increase in pulmonary vascular resistance and pulmonary arterial pressure (pulmonary hypertension): lowering the increase in pulmonary vascular resistance and pulmonary arterial pressure | early cerebral vasospasm following SAH (early cerebral vasospasm [1]): prevent early cerebral vasospasm

COc1ccccc1Oc1c(NS(=O)(=O)c2ccc(C(C)(C)C)cc2)nc(-c2ncccn2)nc1OCCO [Bosentan]
cardiac performance (chronic heart failure): improve cardiac performance | increase in pulmonary vascular resistance and pulmonary arterial pressure (pulmonary hypertension): lowering the increase in pulmonary vascular resistance and pulmonary arterial pressure | efficacy in models of acute renal ischemia (acute renal ischemia): effective in models of acute renal ischemia | ET-1-induced changes in gastric mucosal hemodynamics and ET-1-induced gastric ulceration [2]: antagonist toward the ET-1-induced changes in gastric mucosal hemodynamics as well as on ET-1-induced gastric ulceration

COc1ccc(C(=O)/C(Cc2cc(OC)c(OC)c(OC)c2)=C(/C(=O)O)c2ccc3c(c2)OCO3)cc1 [Example 1, (E)-2-Benzo[1,3]dioxol-5-yl-4-(4-methoxy-phenyl)-4-oxo-3-(3,4,5-trimethoxy-benzyl)-but-2-enoic acid]
IC50 (human ETA R): 65 nM | IC50 (human ETB R): > 2500 nM

COc1ccc(/C(C(=O)O)=C(/Cc2ccc3c(c2)OCO3)C(=O)c2cc(OC)c(OC)c(OC)c2)cc1 [Example 2, (E)-3-Benzo[1,3]dioxol-5-ylmethyl-2-(4-methoxy-phenyl)-4-oxo-4-(3,4,5-trimethoxy-phenyl)-but-2-enoic acid]
IC50 (human ETA R): 58 nM | IC50 (human ETB R): 10000 nM

CCOc1ccc(C(=O)/C(Cc2cc(OC)c(OC)c(OC)c2)=C(/C(=O)O)c2cc(OC)c3c(c2)OCO3)cc1C [Example 3]
IC50 (human ETA R): 70 nM | IC50 (human ETB R): > 2500 nM

COc1ccc(C2(O)OC(=O)C(c3ccc4c(c3)OCO4)=C2Cc2ccccc2)cc1 (stereo not drawn) [PD 155080]
prostate smooth muscle function (prostate smooth muscle): mediate prostate smooth muscle function in vivo

COc1ccc(C2(O)OC(=O)C(c3ccc4c(c3)OCO4)=C2Cc2cc(OC)c(OC)c(OC)c2)cc1 (stereo not drawn) [PD 156707]
increase in pulmonary vascular resistance and pulmonary arterial pressure (pulmonary hypertension): lowering the increase in pulmonary vascular resistance and pulmonary arterial pressure | volume of ischemic damage in the cerebral hemisphere [3]: significantly reduced

COc1cccc(Oc2c(NS(=O)(=O)c3ccc(C(C)(C)C)cc3)ncnc2OCCO)c1 [Ro 46-2005]
systemic arterial blood pressure (early cerebral vasospasm [4]): no significant effect on systemic arterial blood pressure

CCCOc1ccc2c(c1)[C@@H](c1ccc(OC)cc1OCC(=O)O)[C@H](C(=O)O)[C@H]2c1ccc2c(c1)OCO2 [SB 209670]
neointima formation (neointima formation): ameliorate neointima formation

FR 139317
vasoconstriction of the basilar artery [5]: significantly inhibited the vasoconstriction of the basilar artery

endothelin
small intestinal mucosal damage (small intestinal mucosa): induce small intestinal mucosal damage in rats in a dose-dependent manner | hepatic vasculature vasoconstriction and hepatic glucose output (liver): sustained vasoconstriction of the hepatic vasculature and a significant increase in hepatic glucose output | vasoconstrictor action on isolated cerebral arterioles [6]: potent vasoconstrictor action
